SMILES strings stand for the structures.

For the assay, the target named is T1, 3-phosphoshikimate 1-carboxyvinyltransferase (Escherichia coli K-12, UniProt P0A6D3).
T1 sequence (P0A6D3 whole entry): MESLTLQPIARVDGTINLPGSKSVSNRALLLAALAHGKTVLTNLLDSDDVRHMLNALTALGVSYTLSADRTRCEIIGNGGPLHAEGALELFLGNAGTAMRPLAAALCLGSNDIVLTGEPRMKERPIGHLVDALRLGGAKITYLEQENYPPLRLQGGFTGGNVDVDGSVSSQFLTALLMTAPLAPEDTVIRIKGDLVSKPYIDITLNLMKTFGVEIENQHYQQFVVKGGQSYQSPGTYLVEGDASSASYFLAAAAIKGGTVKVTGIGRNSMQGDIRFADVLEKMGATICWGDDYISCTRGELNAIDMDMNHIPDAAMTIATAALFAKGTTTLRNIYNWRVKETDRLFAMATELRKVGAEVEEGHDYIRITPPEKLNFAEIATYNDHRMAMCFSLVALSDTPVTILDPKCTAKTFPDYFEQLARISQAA
Briefly: Inhibition of Escherichia coli EPSP synthase.

Regarding `O=C(O)COc1cc(OC(C(=O)O)C(=O)O)cc(C(=O)O)c1`, the IC50 (as a rule, the concentration needed to halve the response being measured) is 2 mM. That is a millimolar value.
`O=C(O)COc1cc(CP(=O)(O)O)cc(C(=O)O)c1` displayed an IC50 of 10 mM. This IC50 is about 5-fold higher than that of the molecule before.
Molecule `O=C(O)c1cc(OC(C(=O)O)P(=O)(O)O)cc(OP(=O)(O)O)c1` (stereo not drawn) returned an IC50 of 0.02 mM and a Ki of 160 nM.
As for `O=C(O)c1cc(OP(=O)(O)O)cc(OP(=O)(O)O)c1`, the IC50 amounted to 0.085 mM. Also, the Ki (read-out: Ki app) was 780 nM.
In turn, `O=C(O)c1cc(OC(C(=O)O)C(=O)O)cc(OC(C(=O)O)C(=O)O)c1` returned a concentration for half-maximal inhibition (IC50) of 0.21 mM. In addition, under “read-out: Ki app”, the Ki amounted to 2500 nM.
Molecule `O=C(O)COc1cc(C(=O)O)cc(C(O)P(=O)(O)O)c1` (stereo not drawn) came in with an IC50 of 3 mM.
In turn, `O=C(O)COc1cc(C(=O)O)cc(P(=O)(O)O)c1` yielded a 50% inhibitory concentration (IC50) of 10 mM.
On the same count and under the same terms, to `O=C(O)c1cc(O)cc(OP(=O)(O)O)c1` belongs 7.9 mM.
The molecule `O=C(O)CO[C@@H]1CC(C(=O)O)=C[C@@H](OP(=O)(O)O)[C@@H]1O` displayed a 50% inhibitory concentration (IC50) of 0.1 mM and a Ki of 1500 nM.
`O=C(O)c1cc(O)cc(C(O)P(=O)(O)O)c1` (stereo not drawn) registered a 50% inhibitory concentration (IC50) of 10 mM.
Take `O=C(O)c1cc(CP(=O)(O)O)cc(CP(=O)(O)O)c1`: the IC50 worked out at 3 mM. Against the preceding molecule, the IC50 is about 3.3-fold lower.
On to `O=C(O)c1cc(O)cc(CP(=O)(O)O)c1`, for which the 50% inhibitory concentration (IC50) was > 80 mM.
In the case of `O=C(O)c1cc(O)cc(OC(C(=O)O)C(=O)O)c1`, the IC50 worked out at 10 mM.
As for `O=C(O)COc1cc(OP(=O)(O)O)cc(C(=O)O)c1`, the IC50 amounted to 1.4 mM.

Values taken from ChEMBL document CHEMBL1127721, “EPSP synthase inhibitor design IV. New aromatic substrate analogs and symmetrical inhibitors containing novel 3-phosphate mimics” (Bioorg Med Chem Lett, 1994).
